Assay results reported in article PMC11786100, “Chronic GIPR agonism results in pancreatic islet GIPR functional desensitisation” (Molecular Metabolism, 2025).

Experiments:
Assay type in all cases: cell-based
mouse GIPR = test: HTRF cAMP assay in transiently transfected AD-293 cells; conditions: 30 min stimulation, n = 3–5
Method: (§1) AD-293 cells were transfected with desired plasmid DNA 24 h prior to cAMP quantification using the cAMP-Gs Dynamic 2 kit (Cisbio, France), as per manufacturer's protocol. Full details are provided in the supplementary methods.
(§2) AD-293 cells were added to a 12-well plate and maintained in 2 ml complete DMEM. 1 μg of specified plasmid DNA was added to each well alongside Lipofectamine 2000 (Thermo Fisher, UK). cAMP production was quantified 24 hours following transfection using homogenous time resolved fluorescence (HTRF), specifically the cAMP-Gs Dynamic 2 kit (Cisbio, France). Peptides and cells were diluted in DMEM + 1% P/S + 0.1% BSA. For peptide stability testing, cells, fresh peptide and peptide incubated with dispersed islet cells were diluted in RPMI-1640 (Thermo Fisher, UK) + 10% FBS + 1% P/S. 10 μl of peptide and 10 μl of cell suspension were added in duplicate to an opaque 96-well plate (Grenier Bio-One, Austria) and incubated at 37°C for 30 minutes. 10 μl of cAMP-d2 and anti-cAMP cryptate, both diluted in lysis buffer, were added in quick succession as per the manufacturer’s protocol. The plates were then incubated at room temperature for 45 minutes and read using the SpectraMax i3x (Molecular Devices, US).

mouse GCGR = target: T1, mouse GCGR (Mus musculus, UniProt Q61606); test: as above; conditions: 30 min stimulation, n = 3–5
T1 construct: Plasmids encoding full length, wild-type human or mouse GLP-1R, GIPR or glucagon receptor (GCGR) in the pcDNA5/FRT vector; host or cells: AD-293
T1 sequence (Q61606 27-485): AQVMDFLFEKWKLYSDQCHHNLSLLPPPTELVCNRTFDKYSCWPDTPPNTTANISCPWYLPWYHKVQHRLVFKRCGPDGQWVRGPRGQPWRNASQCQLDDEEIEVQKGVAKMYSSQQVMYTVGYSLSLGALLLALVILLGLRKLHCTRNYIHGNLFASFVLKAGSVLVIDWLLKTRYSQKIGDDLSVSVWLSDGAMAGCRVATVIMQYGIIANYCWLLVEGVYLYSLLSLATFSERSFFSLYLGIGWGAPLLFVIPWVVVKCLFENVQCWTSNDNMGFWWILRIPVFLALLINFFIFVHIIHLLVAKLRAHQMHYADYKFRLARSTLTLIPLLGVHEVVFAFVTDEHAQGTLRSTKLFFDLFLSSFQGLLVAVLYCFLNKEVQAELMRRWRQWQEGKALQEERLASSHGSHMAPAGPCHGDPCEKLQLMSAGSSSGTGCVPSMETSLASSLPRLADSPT
Method: as §1, §2

human GIPR = target: T2, human GIPR (Homo sapiens, UniProt P48546); test: as above; conditions: 30 min stimulation, n = 3–5
T2 construct: Plasmids encoding full length, wild-type human or mouse GLP-1R, GIPR or glucagon receptor (GCGR) in the pcDNA5/FRT vector; host or cells: AD-293
T2 sequence (P48546 22-466): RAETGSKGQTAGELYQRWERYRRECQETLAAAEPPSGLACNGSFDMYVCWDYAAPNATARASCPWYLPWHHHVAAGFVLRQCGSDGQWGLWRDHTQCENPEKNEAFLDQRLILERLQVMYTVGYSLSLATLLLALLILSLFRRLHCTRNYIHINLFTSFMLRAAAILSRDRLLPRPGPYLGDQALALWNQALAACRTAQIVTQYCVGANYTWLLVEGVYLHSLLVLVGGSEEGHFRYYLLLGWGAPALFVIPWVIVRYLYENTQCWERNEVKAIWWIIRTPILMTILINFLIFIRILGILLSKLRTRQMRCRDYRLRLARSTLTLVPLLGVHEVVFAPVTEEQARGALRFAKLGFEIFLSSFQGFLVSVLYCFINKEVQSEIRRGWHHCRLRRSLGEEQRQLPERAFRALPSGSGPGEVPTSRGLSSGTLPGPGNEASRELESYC
Method: as §1, §2

GIPR = target: T3, GIPR (Mus musculus, UniProt Q0P543); test: Ex vivo islet GIPR desensitisation (pre-treat/washout/rechallenge cAMP); conditions: for rechallenge cAMP response after 24-hour pre-treatment: cADDis
T3 construct: from tissue; host or cells: dispersed pancreatic islets of C57BL/6J, CAMPER Pdx1-CreERT2 and CAMPER Som-Cre mice
T3 sequence (Q0P543 19-460): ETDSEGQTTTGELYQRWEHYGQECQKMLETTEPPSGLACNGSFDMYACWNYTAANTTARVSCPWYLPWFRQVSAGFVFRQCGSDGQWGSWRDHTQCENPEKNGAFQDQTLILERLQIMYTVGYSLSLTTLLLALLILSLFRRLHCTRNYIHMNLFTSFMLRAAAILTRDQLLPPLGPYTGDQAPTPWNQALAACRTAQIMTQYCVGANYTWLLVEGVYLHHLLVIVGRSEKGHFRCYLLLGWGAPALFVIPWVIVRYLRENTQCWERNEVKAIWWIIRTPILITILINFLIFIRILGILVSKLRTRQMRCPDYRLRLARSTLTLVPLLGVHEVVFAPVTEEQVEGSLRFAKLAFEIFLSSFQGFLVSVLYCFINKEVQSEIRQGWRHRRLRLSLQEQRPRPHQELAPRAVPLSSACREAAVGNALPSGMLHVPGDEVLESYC
Method: Primary cultures of mouse hypothalamic neurons and dispersed pancreatic islets were transduced with the Green Up cADDis biosensor (Montana Molecular, US). Pancreatic islets from CAMPER^Pdx−1-CreERT2 and CAMPER^Som-Cre mice were not transduced. Cells were pre-treated with peptides as specified, dissolved in culture media. Following 4 h or overnight incubation and a 1-hour washout period, cells were imaged using an epifluorescence microscope at baseline (t = 3 min), following peptide addition (t = 10 min, unless specified otherwise), and following 3-isobutyl-1-methylxanthine (IBMX) (500 μM) and forskolin (FSK) (50 μM) addition (t = 3 min) to maximally stimulate the sensor. In pre-treatment experiments, islet cell fluorescence was normalised to the IBMX/FSK response which was set as 100%. In non-pre-treatment experiments, islet and neuronal cell fluorescence was normalised to both the baseline and IBMX/FSK response. The area-under-the-curve (AUC) for each cell was quantified. Full details of isolation, transduction, plating, imaging and image analysis is provided in the supplementary methods.
During this treatment, peptides were dissolved in islet culture media. Prior to imaging, the peptide washout period was 1 hour in Krebs buffer with 6 mM glucose and 0.1% BSA.
Cells were imaged in Krebs buffer with 6 mM glucose and 0.1% BSA (unless 10% FBS was specified) at 37°C using an automated epifluorescence microscope (modified Nikon Ti-2E with LED illumination). Multiple fields of view (FOV) were imaged in parallel (for islets, multiple wells of a 96 well plate were imaged in parallel), allowing hundreds to thousands of cells to be imaged every minute throughout the time course. For all acquisitions, the first three minutes were baseline recording pre-peptide addition and the last three minutes were a positive control following IBMX (500 μM) and forskolin (50 μM) addition to maximally stimulate the sensor.
Cells were imaged in a similar setup described in the previous paragraph. However, an image spitter (OptoSplit III, Cairn Research Ltd, UK) was used to enable simultaneous acquisition of cyan fluorescent protein (CFP) and yellow fluorescent protein (YFP) emission. cAMP was quantified based on the YFP/CFP FRET ratio from each cell.
cAMP quantification from the raw islet/neuronal images was performed using Fiji v1.54f (NIH). […] The fluorescence intensity of each ROI was measured at each time point. In pre-treatment experiments, islet cell fluorescence was normalised to the maximal IBMX/FSK response which was set as 100%. For non-pre-treatment experiments, neuronal and islet cell fluorescence were normalised to both the baseline and maximal IBMX/FSK response. The AUC during peptide stimulation for each cell was quantified. […]

mouse SNAP-tagged GIPR = target: T4, mouse SNAP-tagged GIPR (Mus musculus, UniProt Q0P543); test: β-arrestin-2 activation assay (Borealis sensor) in AD-293 cells; conditions: 1 μM, 30-minute stimulation, n = 5–6
T4 construct: host or cells: AD-293
T4 sequence (Q0P543 19-460): T3 sequence (Q0P543 19-460)
Method: AD-293 cells were transfected with desired plasmid DNA encoding a SNAP-tagged GPCR alongside transduction of Bacmam viral particles encoding the Borealis β-arrestin-2 sensor (Montana Molecular, US) and GRK5 (Montana Molecular, US) 24 h prior to assay. Cells were labelled for 10 min with BG-S-S-649 and imaged at baseline and for 30 min following peptide stimulation. Borealis arrestin sensor fluorescence in BG-S-S-649 labelled cells (representing GPCR expressing cells) was quantified and expressed as a % change from baseline.
AD-293 cells were added to a 96-well plate and maintained in 200 μL complete DMEM. 150 ng of mouse or human SNAP-tagged plasmid GIPR or GLP-1R DNA, 2 μL of Borealis β-arrestin-2 sensor (Montana Molecular, US) and 2 μL of GRK5 (Montana Molecular, US) was added to each well alongside Lipofectamine 2000 and left for 24 hours.
Cells were labelled with cleavable SNAP-tag probe BG-S-S-649 in complete DMEM for 10 minutes prior to washing and imaging. […] Cells were imaged at baseline, registering both BG-S-S-649 fluorescence and borealis arrestin sensor fluorescence. Borealis arrestin sensor fluorescence was then imaged for 30 minutes after peptide addition in intervals of 5 minutes. Borealis arrestin sensor fluorescence in BG-S-S-649 labelled cells was quantified using Fiji v1.54f (NIH) and expressed as a % change from baseline.

With `CC[C@H](C)[C@H](NC(=O)[C@H](CO)NC(=O)[C@H](Cc1ccc(O)cc1)NC(=O)[C@H](CC(=O)O)NC(=O)[C@H](CO)NC(=O)[C@@H](NC(=O)[C@H](Cc1ccccc1)NC(=O)[C@@H](NC(=O)CNC(=O)[C@H](CCC(=O)O)NC(=O)C(C)(C)NC(=O)[C@@H](N)Cc1ccc(O)cc1)[C@@H](C)O)[C@@H](C)CC)C(=O)N[C@@H](C)C(=O)N[C@@H](CC(C)C)C(=O)N[C@@H](CC(=O)O)C(=O)N[C@@H](CCCCN)C(=O)N[C@H](C(=O)N[C@@H](Cc1c[nH]cn1)C(=O)N[C@@H](CCC(N)=O)C(=O)N[C@@H](CCC(N)=O)C(=O)N[C@@H](CC(=O)O)C(=O)N[C@@H](Cc1ccccc1)C(=O)N[C@H](C(=O)N[C@@H](CC(N)=O)C(=O)N[C@@H](Cc1c[nH]c2ccccc12)C(=O)N[C@@H](CC(C)C)C(=O)N[C@@H](CC(C)C)C(=O)N[C@@H](C)C(=O)N[C@@H](CCC(N)=O)C(=O)N[C@@H](CCCCN)C(=O)NCC(=O)N[C@@H](CCCCNC(=O)CC[C@H](NC(=O)CCCCCCCCCCCCCCCCCCC(=O)O)C(=O)O)C(=O)N[C@@H](CCCCN)C(=O)N[C@@H](CC(N)=O)C(=O)N[C@@H](CC(=O)O)C(=O)N[C@@H](Cc1c[nH]c2ccccc12)C(=O)N[C@@H](CCCCN)C(=O)N[C@@H](Cc1c[nH]cn1)C(=O)N[C@@H](CC(N)=O)C(=O)N[C@H](C(=O)N[C@H](C(=O)N[C@@H](CCC(N)=O)C(=O)O)[C@@H](C)O)[C@@H](C)CC)C(C)C)[C@@H](C)CC` [GIP108] the “fold lower cAMP potency than hGIP at mouse GIPR” value (mouse GIPR) was 19.6 fold, the “cAMP activation of mouse GCGR” value (mouse GCGR) was “minimal activation” and the “cAMP potency at human GIPR compared with human GIP(1–42)” value (human GIPR) was “potency similar to human GIP(1–42)”. The “GIPR desensitisation in pancreatic beta cells” value (GIPR; 24 h GIP108 pre-treatment, TEpacVV FRET sensor, CAMPER Pdx-1-CreERT2 mice, n = 4) was “GIPR desensitisation was observed in both cell types”, the “GIPR desensitisation in pancreatic delta cells” value (GIPR; 24 h GIP108 pre-treatment, TEpacVV FRET sensor, CAMPER Som-Cre mice, n = 5) was “GIPR desensitisation was observed in both cell types” and the “rechallenge cAMP response after 24-hour pre-treatment” value (GIPR; islets from HFD-induced obese mice, pre-treatment and rechallenge GIP108 (1 µM), n=3) was “The same effects were observed”. The “rechallenge cAMP response after 24-hour pre-treatment” value (GIPR; pre-treatment 100 nM or 1 μM GIP108, rechallenge GIP108 (1 μM), dispersed islets from lean mice, n = 11–12) was “significantly reduced” and the “β-arrestin-2 activation compared to vehicle control” value (mouse SNAP-tagged GIPR) was “neither hGIP (1 μM) nor GIP108 (1 μM) resulted in significant increases”.
